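Dose response: 5 concentrations. Exposure: 48 h. Format: 96-well plates. Endpoint: linear interpolation; highest concentration if not reached. GI50 marks 50% less growth.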 Calls of active or inactive are those of the source. No stated cut-off is given here; in the data, active = GI50 up to about 1.1 µM and inactive = higher.
Legend:
Assay in all cases: inhibition of tumour cell growth, NCI panel, 48 h
786-0 = system: 786-0
A498 = system: A498
A549 = system: A549
ACHN = system: ACHN
BT-549 = system: BT-549
CAKI-1 = system: CAKI-1
COLO 205 = system: COLO 205
DU-145 = system: DU-145
EKVX = system: EKVX
HCC 2998 = system: HCC 2998
HCT-116 = system: HCT-116
HCT-15 = system: HCT-15
HL-60 = system: HL-60
HOP-62 = system: HOP-62
HOP-92 = system: HOP-92
HT-29 = system: HT-29
Hs-578T = system: Hs-578T
IGROV-1 = system: IGROV-1
K562 = system: K562
KM12 = system: KM12
LOX IMVI = system: LOX IMVI
M14 = system: M14
MCF7 = system: MCF7
MDA-MB-231 = system: MDA-MB-231
MDA-MB-435 = system: MDA-MB-435
Malme-3M = system: Malme-3M
NCI-H226 = system: NCI-H226
NCI-H23 = system: NCI-H23
NCI-H460 = system: NCI-H460
NCI-H522 = system: NCI-H522
NCI/ADR-RES = system: NCI/ADR-RES
OVCAR-3 = system: OVCAR-3
OVCAR-4 = system: OVCAR-4
OVCAR-5 = system: OVCAR-5
OVCAR-8 = system: OVCAR-8
PC-3 = system: PC-3
RPMI-8226 = system: RPMI-8226
SF-268 = system: SF-268
SF-295 = system: SF-295
SF-539 = system: SF-539
SK-MEL-28 = system: SK-MEL-28
SK-MEL-2 = system: SK-MEL-2
SK-MEL-5 = system: SK-MEL-5
SK-OV-3 = system: SK-OV-3
SN12C = system: SN12C
SNB-19 = system: SNB-19
SNB-75 = system: SNB-75
SR = system: SR
SW-620 = system: SW-620
T47D = system: T47D
TK-10 = system: TK-10
U-251 = system: U-251
UACC-257 = system: UACC-257
UACC-62 = system: UACC-62
UO-31 = system: UO-31
CCRF-CEM = system: CCRF-CEM
MOLT-4 = system: MOLT-4
RXF 393 = system: RXF 393

## Brc1ccc2nc(-c3cccs3)nc(N3CCN(c4ccccc4)CC3)c2c1
786-0
  GI50: > 100 µM (inactive)
A498
  GI50: > 100 µM (inactive)
A549
  GI50: > 100 µM (inactive)
ACHN
  GI50: > 100 µM (inactive)
BT-549
  GI50: > 100 µM (inactive)
CAKI-1
  GI50: > 100 µM (inactive)
COLO 205
  GI50: > 100 µM (inactive)
DU-145
  GI50: > 100 µM (inactive)
EKVX
  GI50: > 100 µM (inactive)
HCC 2998
  GI50: > 100 µM (inactive)
HCT-116
  GI50: > 100 µM (inactive)
HCT-15
  GI50: > 100 µM
HL-60
  GI50: > 100 µM (inactive)
HOP-62
  GI50: > 100 µM (inactive)
HOP-92
  GI50: > 100 µM (inactive)
HT-29
  GI50: > 100 µM (inactive)
Hs-578T
  GI50: > 100 µM (inactive)
IGROV-1
  GI50: > 100 µM (inactive)
K562
  GI50: > 100 µM (inactive)
KM12
  GI50: > 100 µM (inactive)
LOX IMVI
  GI50: > 100 µM (inactive)
M14
  GI50: > 100 µM (inactive)
MCF7
  GI50: > 100 µM (inactive)
MDA-MB-231
  GI50: > 100 µM (inactive)
MDA-MB-435
  GI50: > 100 µM (inactive)
Malme-3M
  GI50: > 100 µM (inactive)
NCI-H226
  GI50: > 100 µM (inactive)
NCI-H23
  GI50: > 100 µM (inactive)
NCI-H460
  GI50: > 100 µM (inactive)
NCI-H522
  GI50: > 100 µM (inactive)
NCI/ADR-RES
  GI50: > 100 µM (inactive)
OVCAR-3
  GI50: > 100 µM (inactive)
OVCAR-4
  GI50: > 100 µM (inactive)
OVCAR-5
  GI50: > 100 µM (inactive)
OVCAR-8
  GI50: > 100 µM (inactive)
PC-3
  GI50: > 100 µM (inactive)
RPMI-8226
  GI50: > 100 µM (inactive)
SF-268
  GI50: > 100 µM (inactive)
SF-295
  GI50: > 100 µM (inactive)
SF-539
  GI50: > 100 µM (inactive)
SK-MEL-28
  GI50: > 100 µM (inactive)
SK-MEL-2
  GI50: > 100 µM (inactive)
SK-MEL-5
  GI50: > 100 µM (inactive)
SK-OV-3
  GI50: > 100 µM (inactive)
SN12C
  GI50: > 100 µM (inactive)
SNB-19
  GI50: > 100 µM (inactive)
SNB-75
  GI50: > 100 µM (inactive)
SR
  GI50: > 100 µM (inactive)
SW-620
  GI50: > 100 µM (inactive)
T47D
  GI50: > 100 µM (inactive)
TK-10
  GI50: > 100 µM (inactive)
U-251
  GI50: > 100 µM (inactive)
UACC-257
  GI50: > 100 µM (inactive)
UACC-62
  GI50: > 100 µM (inactive)
UO-31
  GI50: > 100 µM (inactive)

## O=C(O)CCC1NC(/C(=C/c2ccccc2O)NC(=O)c2ccccc2)OC1=O (configuration not stated)
786-0
  GI50: 46.7 µM (inactive)
A498
  GI50: > 100 µM (inactive)
A549
  GI50: > 100 µM (inactive)
ACHN
  GI50: 33 µM (inactive)
BT-549
  GI50: 72.6 µM (inactive)
CAKI-1
  GI50: > 100 µM (inactive)
CCRF-CEM
  GI50: > 100 µM (inactive)
COLO 205
  GI50: > 100 µM (inactive)
DU-145
  GI50: > 100 µM (inactive)
EKVX
  GI50: > 100 µM (inactive)
HCC 2998
  GI50: > 100 µM (inactive)
HCT-116
  GI50: 67.3 µM (inactive)
HCT-15
  GI50: > 100 µM
HL-60
  GI50: > 100 µM (inactive)
HOP-62
  GI50: 17.5 µM (inactive)
HOP-92
  GI50: > 100 µM (inactive)
HT-29
  GI50: > 100 µM (inactive)
Hs-578T
  GI50: 43.8 µM (inactive)
IGROV-1
  GI50: 30.5 µM (inactive)
K562
  GI50: > 100 µM (inactive)
KM12
  GI50: 4.57 µM (inactive)
LOX IMVI
  GI50: > 100 µM (inactive)
M14
  GI50: > 100 µM (inactive)
MCF7
  GI50: 3.39 µM (inactive)
MDA-MB-231
  GI50: 46.9 µM (inactive)
MDA-MB-435
  GI50: 15.8 µM (inactive)
MOLT-4
  GI50: > 100 µM (inactive)
Malme-3M
  GI50: > 100 µM (inactive)
NCI-H226
  GI50: 72.3 µM (inactive)
NCI-H23
  GI50: > 100 µM (inactive)
NCI-H460
  GI50: > 100 µM (inactive)
NCI-H522
  GI50: 64.1 µM (inactive)
NCI/ADR-RES
  GI50: 88.5 µM (inactive)
OVCAR-3
  GI50: > 100 µM (inactive)
OVCAR-4
  GI50: > 100 µM (inactive)
OVCAR-5
  GI50: > 100 µM (inactive)
OVCAR-8
  GI50: 46.8 µM (inactive)
PC-3
  GI50: > 100 µM (inactive)
RPMI-8226
  GI50: > 100 µM (inactive)
RXF 393
  GI50: 34.2 µM (inactive)
SF-268
  GI50: 61.5 µM (inactive)
SF-295
  GI50: 35.4 µM (inactive)
SF-539
  GI50: 95.3 µM (inactive)
SK-MEL-28
  GI50: > 100 µM (inactive)
SK-MEL-2
  GI50: > 100 µM (inactive)
SK-MEL-5
  GI50: > 100 µM (inactive)
SK-OV-3
  GI50: 44.2 µM (inactive)
SN12C
  GI50: > 100 µM (inactive)
SNB-19
  GI50: 32.5 µM (inactive)
SNB-75
  GI50: 23.2 µM (inactive)
SW-620
  GI50: > 100 µM (inactive)
T47D
  GI50: 16 µM (inactive)
TK-10
  GI50: 56.1 µM (inactive)
U-251
  GI50: 37.2 µM (inactive)
UACC-257
  GI50: 27.5 µM (inactive)
UACC-62
  GI50: > 100 µM (inactive)
UO-31
  GI50: 18 µM (inactive)
